Assay results: patent publication US7629368B2, “Nitroderivatives as drugs for diseases having an inflammatory basis” (Nicox S.A., priority 2000, dated 2009)

Key:
[1] = system: Human adenocarcinoma (HT29) cells; assay: Antiproliferative activity in cancerous cells, cellular growth by haemocytometer; format: cell-based; details: 96 hours, controls = 100, read-out: Proliferation %
Description: Determination of the Antiproliferative Activity of the Compounds of the Invention in Cancerous Cells.
Human adenocarcinoma (HT29) cells taken from colon affected by cancerous process were transferred into plates with 24 wells containing a cellular culture medium formed by 10% of foetal bovine serum, penicillin (50 U/ml), streptomycin ([…]) and PEG 400 (polyethylenglycol). After 24 hours a part of the plates is inoculated with the tested compounds dissolved in the carrier (PEG 400). 96 hours after the inoculation of the compounds the cellular growth was measured by haemocytometer. The results, reported in Table 2, are expressed as percentage of the cellular proliferation with respect to the controls.

[2] = system: 1207 human epithelial cells of bladder cancer; assay: Antiproliferative activity, MTT, bladder cancer line 1207; format: cell-based; details: Epithelial cell, 96 h, 4 days, vs DMSO 1%, read-out: Inhibition of the proliferative activity (%); for inhibition at 100 µM: 10^-4 M; for inhibition at 10 µM: 10^-5 M; for inhibition at 1 µM: 10^-6 M
Description: (§1) Determination of the Antiproliferative Activity of the Compounds of the Invention in Cancerous Epithelial Cells of Bladder and Prostate.
(§2) The experiment was carried out by using three human epithelial cellular lines of the prostate cancer (PNT1A; LLNCaP; PC3) and three human epithelial cellular lines of the bladder cancer (T24; 647V; 1207), the various types of cellular lines are identified on the basis of the characteristics, in particular of the aggressiveness, of the cancerous process.
(§3) The cancerous cells are sown, with an initial concentration of 20,000 cells/cm^2, in plates having 96 wells with a cellular culture medium RPMI added with foetal bovine serum 5% and L-Glutamine 1%. Solutions in dimethylsulphoxide of the tested compounds at three different concentrations (10^−6 M; 10^−5M; 10^−4M) or the carrier (DMSO 1%) are added to the culture medium. 4 days after the treatment the cellular growth was measured by the method with MTT (3-[4,5-dimethylthiazol-2-yl]-2,5-diphenyltetrazolium bromide) de-scribed by Turner in: Turner T., Chen P., Goodly L. J., Wells A. Clin. Exp. Metastasis 1996, 14, 409-418. The results, reported in Table 3, are expressed as inhibition percentage of the cellular proliferation determined by measuring the cellular proliferation in the cellular cultures treated with the tested compounds with respect to that measured in cellular cultures treated with dimethylsulphoxide 1%.

[3] = system: 647V human epithelial cells of bladder cancer; assay: Antiproliferative activity, MTT, bladder cancer line 647V; format: cell-based; details: 96 h, 4 days, vs DMSO 1%, read-out: Inhibition of the proliferative activity (%); for inhibition at 100 µM: 10^-4 M; for inhibition at 10 µM: 10^-5 M; for inhibition at 1 µM: 10^-6 M
Description: as §1, §2, §3

[4] = system: PC3 human epithelial cells of prostate cancer; assay: Antiproliferative activity, MTT, prostate cancer line PC3; format: cell-based; details: Epithelial cell, 96 h, 4 days, vs DMSO 1%, read-out: Inhibition of the proliferative activity (%); for inhibition at 100 µM: 10^-4 M; for inhibition at 10 µM: 10^-5 M; for inhibition at 1 µM: 10^-6 M
Description: as §1, §2, §3

[5] = system: T24 human epithelial cells of bladder cancer; assay: Antiproliferative activity, MTT, bladder cancer line T24; format: cell-based; details: Epithelial cell, 96 h, 4 days, vs DMSO 1%, read-out: Inhibition of the proliferative activity (%); for inhibition at 100 µM: 10^-4 M; for inhibition at 10 µM: 10^-5 M; for inhibition at 1 µM: 10^-6 M
Description: as §1, §2, §3

[6] = system: PNT1A human epithelial cells of prostate cancer; assay: Antiproliferative activity, MTT, prostate cancer line PNT1A; format: cell-based; details: 96 h, 4 days, vs DMSO 1%, read-out: Inhibition of the proliferative activity (%); for inhibition at 100 µM: 10^-4 M; for inhibition at 10 µM: 10^-5 M; for inhibition at 1 µM: 10^-6 M
Description: as §1, §2, §3

[7] = system: LNCaP human epithelial cells of prostate cancer; assay: Antiproliferative activity, MTT, prostate cancer line LNCaP; format: cell-based; details: 96 h, 4 days, vs DMSO 1%, read-out: Inhibition of the proliferative activity (%); for inhibition at 100 µM: 10^-4 M; for inhibition at 10 µM: 10^-5 M; for inhibition at 1 µM: 10^-6 M
Description: as §1, §2, §3

[8] = system: human epithelial cellular lines of the prostate cancer and of the bladder cancer; assay: Antiproliferative activity in prostate and bladder cancer lines, summary in words; format: cell-based
Description: as §2, §3
The compound of Ex. 7, reported in the Table with the simplified denomination of nitrooxybutyl ester of the aspirin der. with ferulic ac. is active, at 10^−5 concentrations, in prostate tumours as shown by the results obtained on the cellular lines LNCaP and PC3.

[9] = system: liver injury induced by concanavalin A; assay: Protection from liver injury induced by concanavalin A; format: in vivo; details: ip; plasmatic glutamic-pyruvic transaminase vs treated control group (=100); 200 mg/kg intraperitoneal; 8 hours after concanavalin A 0.3 mg/rat i.v.
Excerpt: Determination of the capability of the compounds of the invention to protect the animals from the liver injury induced by concanavalin A.
The model in vivo used in the present example has been described in Tiegs G, Hentshel J, A Wendel. A T cell-dependent experimental liver injury in mice induced by Concanavalin A. J. Clin. Invest. 1992; 90:196-203.
The animals ([…] of Swiss stock weighing about 20 g) are divided in groups of at least No. 10 animals for group.
The animals receive concanavalin and solvent (treated control group), solvent (polyethylene glycol 400-untreated control group), concanavalin and tested compound dissolved in the solvent (treated groups).
Rats are treated intravenously with concanavalin A (0.3 mg/rat), and after 5 minutes they receive by intraperitoneal injection the tested compounds, at the doses reported in Table 1, dissolved in polyethylenglycol 400.
Eight hours after the concanavalin A injection all the animals were sacrificed and the blood collected and examined. The data, reported in Table 1, are expressed as value of the plasmatic glutamic-pyruvic transaminase percentage of the animals treated with the tested compound with respect to the animals of the treated control group.

Compound	inhibition at 100 µM [2] [%]	inhibition at 10 µM [2] [%]	inhibition at 1 µM [2] [%]	inhibition at 100 µM [3] [%]	inhibition at 10 µM [3] [%]	inhibition at 1 µM [3] [%]	inhibition at 100 µM [4] [%]	inhibition at 10 µM [4] [%]	inhibition at 1 µM [4] [%]	inhibition at 100 µM [5] [%]	inhibition at 10 µM [5] [%]	inhibition at 1 µM [5] [%]	inhibition at 100 µM [6] [%]	inhibition at 10 µM [6] [%]	inhibition at 1 µM [6] [%]	inhibition at 100 µM [7] [%]	inhibition at 10 µM [7] [%]	inhibition at 1 µM [7] [%]	also measured
CC(=O)Oc1ccccc1C(=O)Oc1ccc(CO[N+](=O)[O-])cc1 [Ex. 6, 2-(acetyloxy)benzoic Acid 4-(nitrooxymethyl)phenyl ester]																			activity at 10 µM ([1]; HT-29, 10 μM): 0%; melting point: 86 to 88 °C
COc1cc(/C=C/C(=O)OCCCCO[N+](=O)[O-])ccc1OC(=O)c1ccccc1OC(C)=O [Ex. 7, trans-3-[4-[2-(acetyloxy)benzoyloxy]-3-methoxyphenyl]-2-propenoic acid 4-(nitrooxy)butyl ester]	82	24	4	50	0	0	69	30	1	55	0	2	72	0	0	81	47	20	activity at 300 µM ([1]; HT-29, 300 μM): 50%; activity in prostate tumours (in words) ([8]; 10^-5 concentrations, cellular lines LNCaP and PC3): active
CC1=C(CC(=O)OCCCCO[N+](=O)[O-])c2cc(F)ccc2/C1=C\c1ccc([S+](C)[O-])cc1 (stereo not shown) [Ex. 18]	88	74	0	92	80	9	74	68	5	93	82	0	81	38	3	88	74	17	activity at 50 µM ([1]; HT-29, 50 μM): 0%; inhibitory effect on the proliferation of all kinds of cancerous cells examined (in words) ([8]; 10^-5 M, all six prostate and bladder lines): strong inhibitory effect; response vs control in vivo at 200 mg/kg [9]: 18%
